Assay results from patent US20260183350A1, “ANTIBIOTIC-RESISTANT BACTERIA” (priority 2022, published 2026).

How the values were obtained:
[1] = tested on: NDM-1 Enterobacter cloacae; assay: Nitrogen utilisation assay; assay type: cell-based; conditions: M9 minimal medium with glucose, 0.1% (w/v) nitrogen source
Description: (§1) New Delhi Metallo-β-lactamase 1 (NDM-1) Escherichia coli, NDM-1 Klebsiella pneumoniae, and NDM-1 Enterobacter cloacae were isolated from patients with intestinal CRE colonisation from the Imperial College Healthcare NHS Trust via rectal swab (REC ref. 19/LO/0112). The species were assigned by matrix assisted laser desorption ionization-time of flight (MALDI-TOF) mass spectrometry and later confirmed with 16S rRNA gene sequencing. CRE status was determined using X-pert Carba-R PCR detection (Cepheid, Sunnyvale, CA, USA), (Otter, J. A. et al. Detecting carbapenemase-producing Enterobacterales (CPE): an evaluation of an enhanced CPE infection control and screening programme in acute care. J Antimicrob Chemother 75, 2670-2676 (2020)).
(§2) Growth of CRE isolates on sole carbon or nitrogen sources was tested by inoculating each CRE isolate into a minimal medium supplemented with the nutrient of interest. First, CRE isolates were passaged from frozen glycerol stocks on Reasoner's 2A agar (R2A) plates. Cells were then suspended in M9 minimal media to a turbidity of 42% using a Turbidimeter (Biolog Inc.), then diluted a further 1 in 6 to inoculate the carbon or nitrogen utilisation assays. M9 minimal media contained the following (at final concentrations): 22 mM KH2PO4, 42 mM Na2HPO4, 9 mM NaCl, 0.49 mM MgSO4·7H2O, 0.09 mM CaCl2), 0.011 mM FeSO4·7H2O. For the carbon assays the M9 minimal medium was also supplemented with 0.1% (w/v) NH4Cl (as the nitrogen source) and the carbon sources were individually tested at 0.5% (w/v) concentration. For the nitrogen assays the M9 minimal medium was also supplemented with 0.5% (w/v) glucose (as the carbon source) and the nitrogen sources were individually tested at 0.1% (w/v) concentration. Cultures were incubated anaerobically and aerobically in a plate reader and OD600 readings were collected every 15 minutes for 24 hours.
(§3) Growth curves were analysed in Python (v3.6.5) using the AMiGA software (Midani, F. S., Collins, J. & Britton, R. A. AMiGA: Software for Automated Analysis of Microbial Growth Assays. mSystems 6, e0050821 (2021)). Growth of each isolate was measured with 6 wells from 2-3 independent experiments. Growth curves were normalised to the no substrate control using the subtraction method. AMiGA performed Gaussian Process regression to test differential growth between the substrate and the no substrate control. The functional difference in the OD (and its credible interval) was also computed between the substrate and the no substrate control.

[2] = tested on: NDM-1 Escherichia coli; assay: Nitrogen utilisation assay; assay type: cell-based; conditions: M9 minimal medium with glucose, 0.1% (w/v) nitrogen source
Description: as §1, §2, §3

[3] = tested on: NDM-1 Klebsiella pneumoniae; assay: Nitrogen utilisation assay; assay type: cell-based; conditions: M9 minimal medium with glucose, 0.1% (w/v) nitrogen source
Description: as §1, §2, §3

[4] = tested on: NDM-1 Enterobacter cloacae; assay: Nutrient preference assay (nutrient mixture); assay type: cell-based; conditions: M9 with […] of each nutrient, up to 24 hours
Description: as §1
(§4) CRE isolates were passaged once from frozen glycerol stocks on R2A plates. Cells were suspended in M9 minimal media to a turbidity of 42% using a Turbidimeter (Biolog Inc.), then diluted 1 in 6 to inoculate the nutrient preference assays. M9 minimal media was supplemented with 0.015% of each of the following: L-arabinose, D-fructose, L-fucose, D-galactose, D-glucose, D-mannose, D-ribose, D-xylose, N-acetylglucosamine, D-maltose, sucrose, D-trehalose, L-alanine, L-arginine, L-aspartate, L-glutamate, L-glycine, L-isoleucine, L-leucine, L-lysine, L-methionine, L-phenylalanine, L-proline, L-threonine, L-tryptophan, L-tyrosine, L-valine, uracil, and succinate. Cultures were incubated anaerobically and aerobically in a plate reader and OD600 readings were collected every 15 minutes for 24 hours. Cultures were also incubated anaerobically and aerobically for 24 h and samples were collected at 0, 4, 8, and 24 hours post-inoculation for 1H-NMR spectroscopy. Changes in nutrients and metabolites by CRE isolates was compared to the sterile media control over time using a two-way mixed ANOVA followed by pairwise comparisons with Bonferroni correction. […]

[5] = tested on: vancomycin-resistant E. faecalis; assay: VRE nutrient utilization protocol: nitrogen sources, leave-one-out; assay type: cell-based, Enterococcus faecalis; conditions: aerobic; leave-one-out from nitrogen source mixture in minimal medium
Description: (§5) VRE minimal media consists of potassium phosphate monobasic (4 g/L), potassium phosphate dibasic (14 g/L), sodium citrate (1 g/L), magnesium sulphate (0.2 g/L), ammonium sulphate (2 g/L), adenosine (0.04 g/L), thymine (0.04 g/L), Kao and Michayluk vitamin solution [Sigma, K3129, 50× Stock](5×), glucose (1 g/L) and amino acid solution [Sigma, R7131, RPMI-1640, 50×](25×). If the study was performed under anaerobic conditions, fumarate (5.2 g/L) was added to increase growth of VRE strains. Carbon-free minimal media was prepared by leaving out glucose while nitrogen-free minimal media was prepared without the amino acid solution. Media was filter sterilized with a 0.22 micron filter and used immediately aerobically or degassed overnight if used anaerobically.
(§6) VRE strains were grown on R2A overnight before the cells were suspended in 0.9% saline to an OD of 0.38 (λ=595 nm). A 10% dilution of the cell suspension was prepared using VRE minimal media to achieve a final well OD of […] (λ=595 nm) greater than the sterile media OD. Both carbon and nitrogen source utilization were evaluated by adding the inoculated media and a filter-sterilised nutrient source solution into a well in a 1:1 ration to a final volume of 100 μL in aerobic tests and 200 μL in anaerobic tests. Carbon sources were tested individually and compared to a carbon-free control. To test nitrogen source utilization, a nitrogen source solution was prepared containing L-alanine (2 g/L), L-arginine (2.5 g/L, L-asparagine (0.71 g/L), L-aspartate (0.25 g/L), L-cysteine (0.625 g/L), L-glutamate (0.25 g/L), L-Glycine (0.125 g/L), L-histidine (0.1875 g/L), L-isoleucine (0.625 g/L), L-leucine (0.625 g/L), L-lysine HCl (0.5 g/L), L-methionine (0.1875 g/L), L-phenylalanine (0.1875 g/L), L-proline (0.25 g/L), L-serine (0.375 g/L), L-threonine (0.25 g/L), L-tryptophan (0.0625 g/L), L-tyrosine (0.29 g/L), L-valine (0.25 g/L), N-acetylglucosamine (2 g/L), and uracil (2.5 g/L). To test the strains' ability to utilize individual nitrogen sources, separate solutions were prepared eliminating one nitrogen source each. The change in growth compared to the complete nitrogen source solution control was used to determine nitrogen utilization. All carbon and nitrogen sources were tested in a technical triplicate for each biological replicate. Aerobic plates were incubated with a plate seal while anaerobic plates were not. The aerobic plate reader was set to read the plate (λ=595 nm, 37° C., 22 flashes per well, orbital shaking of 100 rpm for 15 s prior to each read) every 15 minutes for 24 hours. The anaerobic plate reader read the plate (λ=595 nm, 37° C., stationary) every 15 minutes for 24 hours.

[6] = tested on: vancomycin-resistant E. faecium; assay: as above; assay type: cell-based, Enterococcus faecium; conditions: aerobic; leave-one-out from nitrogen source mixture in minimal medium
Description: as §5, §6

[7] = tested on: NDM-1 Escherichia coli; assay: Nutrient preference assay (nutrient mixture); assay type: cell-based; conditions: M9 with […] of each nutrient, up to 24 hours
Description: as §1, §4

[8] = tested on: NDM-1 Klebsiella pneumoniae; assay: Nutrient preference assay (nutrient mixture); assay type: cell-based; conditions: M9 with […] of each nutrient, up to 24 hours
Description: as §1, §4

[9] = tested on: NDM-1 Enterobacter cloacae; assay: Carbon utilisation assay; assay type: cell-based; conditions: M9 minimal medium, 0.5% (w/v) carbon source
Description: as §1, §2, §3

[10] = tested on: NDM-1 Escherichia coli; assay: Carbon utilisation assay; assay type: cell-based; conditions: M9 minimal medium, 0.5% (w/v) carbon source
Description: as §1, §2, §3

[11] = tested on: NDM-1 Klebsiella pneumoniae; assay: Carbon utilisation assay; assay type: cell-based; conditions: M9 minimal medium, 0.5% (w/v) carbon source
Description: as §1, §2, §3

Row | SMILES | Use as sole nitrogen source to support E. cloacae growth ([1]; anaerobic) | Use as sole nitrogen source to support E. coli growth ([2]; anaerobic) | Use as sole nitrogen source to support K. pneumoniae growth ([3]; aerobic) | Use as sole nitrogen source to support K. pneumoniae growth ([3]; anaerobic) | Utilisation of nutrient by E. cloacae from nutrient mixture (1H-NMR) ([4]; aerobic) | Utilisation of nutrient by E. cloacae from nutrient mixture (1H-NMR) ([4]; anaerobic) | Use as nitrogen source to support E. faecalis growth [5] | Use as nitrogen source to support E. faecium growth [6] | Use as sole nitrogen source to support E. cloacae growth ([1]; aerobic) | Use as sole nitrogen source to support E. coli growth ([2]; aerobic) | Utilisation of nutrient by E. coli from nutrient mixture (1H-NMR) ([7]; aerobic) | Utilisation of nutrient by E. coli from nutrient mixture (1H-NMR) ([7]; anaerobic) | Utilisation of nutrient by K. pneumoniae from nutrient mixture (1H-NMR) ([8]; aerobic) | Utilisation of nutrient by K. pneumoniae from nutrient mixture (1H-NMR) ([8]; anaerobic) | Use as sole carbon source to support E. cloacae growth ([9]; aerobic) | Use as sole carbon source to support E. coli growth ([10]; aerobic) | Use as sole carbon source to support K. pneumoniae growth ([11]; aerobic) | Use as sole carbon source to support E. cloacae growth ([9]; anaerobic) | Use as sole carbon source to support E. coli growth ([10]; anaerobic) | Use as sole carbon source to support K. pneumoniae growth ([11]; anaerobic)
1 | N=C(N)NCCC[C@H](N)C(=O)O [arginine, L-arginine] | could use | could use | could use | could use | high utilisation | high utilisation | could use | could use |  |  |  |  |  |  |  |  |  |  |  | 
2 | NCCCC[C@H](N)C(=O)O [lysine, L-lysine] |  |  | able to grow |  | produced low levels | produced low levels | could use | could use | able to grow | able to grow | moderate utilisation | high utilisation | high utilisation | high utilisation |  |  |  |  |  | 
3 | C[C@H](N)C(=O)O [alanine, L-alanine] |  |  | able to grow |  |  | not utilised |  |  | able to grow | able to grow |  | not utilised |  | not utilised | able to grow | able to grow | able to grow |  |  | 
4 | CC(C)C[C@H](N)C(=O)O [leucine, L-leucine] |  |  | able to grow |  |  |  | could use | could use | able to grow | able to grow |  |  |  |  |  |  |  |  |  | 
5 | CC[C@H](C)[C@H](N)C(=O)O [isoleucine, L-isoleucine] |  |  | able to grow |  |  |  | could use | could use | able to grow | able to grow |  |  |  |  |  |  |  |  |  | 
6 | NCC(=O)O [glycine, L-glycine] |  |  | able to grow |  |  |  | could use | could use | able to grow | able to grow |  |  |  |  |  |  |  |  |  | 
7 | O=C[C@H](O)[C@@H](O)[C@H](O)CO [xylose, D-xylose] |  |  |  |  |  |  |  |  |  |  |  |  |  |  |  |  |  | could use | could use | could use
8 | N[C@@H](CCC(=O)O)C(=O)O [glutamate, L-glutamate] |  |  | able to grow |  | moderate utilisation |  | could use | could use | able to grow | able to grow | moderate utilisation |  | moderate utilisation |  | able to grow |  | able to grow |  |  | 
